Laboratory results reported in patent US8940770B2, “Nitropyridinyl ethyleneimine compound, the pharmaceutical composition containing it, the preparation method and use thereof” (Beijing Yiling Bioengineering Co., Ltd, priority 2008, dated 2015).
Where two headings read alike, the source gives them in different places.

Key:
[1] = test system: A549 transfected with human cytochrome P450 reducease (CYPOR); experiment: cells; assay type: cell-based; conditions: for IC50: Homo sapiens
Protocol: (§1) Tumor cell strain: human non-small cell lung cancer cell line A549.
(§2) Reagent system: SRB, transfection kit
(§3) The cell strains/the cypor transfected cell strains were subject to normoxic and hypoxic cultivations respectively. Then, the cell vitality was analyzed by SRB assay and IC50 values were calculated. At last, the ratio of IC50 values in normoxia and in hypoxia (hypoxic cytotoxicity ratio, HCR) was calculated.
(§4) Both the human non-small cell lung cancer cell line A549 and the cypor transfected cell strains were cultivated in F12 cultivation medium containing 10% fetal bovine serum at 37° C. and in 5% CO2
(§5) The concentration gradient for the drug was set as 10^−3, 10^−4, 10^−5, 10^−6, and 10^−7 mol/L.
(§6) The crystallized powder of the active ingredient was dissolved in DMSO and formulated into a stock solution having a concentration which was 100 times of the maximal administrated concentration of the drug. The administrated concentrations of the drug could be prepared by directly diluting the stock solution with the corresponding serum-free cultivation medium.
(§7) the stock solution was stored at −80° C. in a refrigerator and the solutions of the drug to be administrated were prepared immediately before use.
(§8) The cell in the exponential growth phase was adjusted to a cell density of 1.0×10^5/ml and seeded into a 96-well plate at 100 μl per well. The drug was added under the normoxic and hypoxic condition respectively, according to the experimental grouping, and each of treatments using the drug lasted for 4 h.
(§9) After treatment using the drug was completed, the treated cells were normally cultivated under a normoxic condition for 4 days and then the cell survival rate was assayed by SRB. IC50 was calculated according to the equation of Lg IC50=Σ(Xi+Xi+1)(Pi+1−Pi)/2. Hypoxia cytotoxicity ratio (HCR) was obtained through dividing IC50 value in normoxia by IC50 value in hypoxia. The greater the HCR value is, the stronger the hypoxic selectivity of the drug will be.
(§10) All of the data were statistically analyzed using the software SPSS 11.5, the results were expressed as a mean±standard deviation ( X±SD), the inter-group difference was tested with the program One-Way ANOVA, P<0.05 means a statistically significant difference.

[2] = test system: human non-small cell lung cancer cell line A549; experiment: SRB cell viability assay, wild-type A549, normoxic and hypoxic drug treatment; assay type: cell-based; conditions: for IC50: Homo sapiens, 4 h drug treatment, then 4 days normoxic culture, SRB, mean ± SD; for HCR O2/N2 (WT): wild-type A549, HCR = IC50 in normoxia/IC50 in hypoxia
Protocol: as §1, §2, §3, §4, §5, §6, §7, §8, §9, §10

[3] = A549, read-out: IC50 N2 (CYPOR)
[4] = A549, read-out: IC50 O2 (CYPOR)
[5] = wild-type A549, hypoxia (N2), read-out: IC50 N2 (WT)
[6] = wild-type A549, normoxia (O2), read-out: IC50 O2 (WT)

Row | Structure (SMILES) | HCR O2/N2 (CYPOR) [1] | IC50 [1, 3] [µM] | IC50 [1, 4] [µM] | IC50 [2, 5] [µM] | IC50 [2, 6] [µM] | HCR O2/N2 (WT) [2] | melting point
1 | NC(=O)c1ccnc(N2CC2)c1[N+](=O)[O-] [Compound II, 2-(1-ethyleneimine)-4-carbamoyl-3-nitropyridine] | 52.5 ± 3.51 | 2.7 ± 0.58 | 142 ± 10.1 | 15.5 ± 2.67 | 198 ± 5.04 | 12.8 ± 2.87 | 170 °C (dec.)
2 | NC(=O)c1cnc(N2CC2)c([N+](=O)[O-])c1 [Compound III, 2-(1-ethyleneimine)-5-carbamoyl-3-nitropyridine] | 62.0 ± 8.32 | 2.3 ± 0.27 | 143 ± 9.96 | 13.5 ± 3.2 | 257 ± 4.83 | 19.0 ± 3.91 | 150 °C (dec.)
3 | NC(=O)c1cc([N+](=O)[O-])cnc1N1CC1 [Compound IV, 2-(1-ethyleneimine)-3-carbamoyl-5-nitropyridine] | 21.3 ± 4.56 | 9.3 ± 3.2 | 198 ± 24.9 | 56.6 ± 7.17 | 317.2 ± 2.79 | 5.6 ± 2.73 | 160 °C (dec.)
4 | NC(=O)c1ccc([N+](=O)[O-])c(N2CC2)n1 [Compound V, 2-(1-ethyleneimine)-6-carbamoyl-3-nitropyridine] | 35.9 ± 9.15 | 1.7 ± 0.38 | 61 ± 7.11 | 9.4 ± 2.65 | 79.3 ± 4.77 | 8.4 ± 3.56 | 170 °C (dec.)
5 | NC(=O)c1cc(N2CC2)ncc1[N+](=O)[O-] [Compound VI, 2-(1-ethyleneimine)-4-carbamoyl-5-nitropyridine] | 108.7 ± 8.88 | 1.1 ± 0.16 | 120 ± 6.48 | 5.5 ± 1.6 | 137 ± 7.34 | 25.0 ± 5.71 | 170 °C (dec.)
